One assay deals with HRAS wild-type protein (Homo sapiens, UniProt P01112). The experiment in a line: Binding to HRAS by surface plasmon resonance (SPR), KD and KD ratio to KRAS. The procedure, abridged: (§1)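 Each cycle, GDP-bound biotin-Avi RAS was captured (~100–300 RU), compound concentrations were injected low to high for 75 s each at 100 µL/min, then the chip was regenerated. Buffer: HBS pH 7.4, 10 mM MgCl2, 10 µM GDP, 1 mM DTT, 4% DMSO; 30°C. KD from a 1:1 binding model.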

The target of assay [1] is GDP-bound NRAS wild-type protein (Homo sapiens, UniProt P01111). The experiment in a line: Binding to NRAS by surface plasmon resonance (SPR), KD and KD ratio to KRAS. The method in brief:
as §1
Background: SPR reads the build-up and loss of mass on a sensor chip optically.

The target of assay [2] is GDP-bound KRAS wild-type protein (Homo sapiens, UniProt P01116). Put plainly: Binding to KRAS by surface plasmon resonance (SPR), dissociation constant KD. The method in brief: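 Captured GDP-RAS (~100–300 RU) was exposed to increasing compound concentrations, 75 s per step, in running buffer with 10 µM GDP, 10 mM MgCl2 and 4% DMSO at pH 7.4.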
Chain of GDP-bound KRAS wild-type protein (P01116 1-188 isoform P01116-2): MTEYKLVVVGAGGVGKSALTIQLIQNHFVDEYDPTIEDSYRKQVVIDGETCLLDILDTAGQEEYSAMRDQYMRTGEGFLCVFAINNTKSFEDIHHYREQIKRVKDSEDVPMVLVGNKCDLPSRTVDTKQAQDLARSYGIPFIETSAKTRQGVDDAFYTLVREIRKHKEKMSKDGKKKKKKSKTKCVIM
Assay [3] concerns human lung cancer strain NCI-H441. Put plainly: NCI-H441 cell proliferation inhibitory activity (CellTiter-Glo, 4 days). It is filed as cell-based. The note with it: read-out: NCl-H441 IC50. The procedure, abridged: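 Signal came from […] measured per well once the reagent was added. Beforehand, cells were cultured at 37°C and 5% carbon dioxide on a compound series serially diluted in dimethyl sulfoxide.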

The mark [4] stands for this setting: ratio of KD with respect to HRAS wild-type protein to KD with respect to KRAS.
[5] abbreviates: ratio of KD with respect to GDP-bound NRAS wild-type protein to KD with respect to KRAS.
The mark [6] stands for this setting: Single Cycle Kinetics, 1:1 binding model.
Setting [7] is: 50% proliferation inhibitory concentration, four days.
The mark [8] stands for this setting: ratio of KD for HRAS wild-type protein to KD for KRAS.
Setting [9] is: ratio of KD for GDP-bound NRAS wild-type protein to KD for KRAS.

pIC50, pKd: −log10 of the molar value. Like-named read-outs stand apart in the source and are kept apart here.

Chain of GDP-bound NRAS wild-type protein (P01111 whole entry): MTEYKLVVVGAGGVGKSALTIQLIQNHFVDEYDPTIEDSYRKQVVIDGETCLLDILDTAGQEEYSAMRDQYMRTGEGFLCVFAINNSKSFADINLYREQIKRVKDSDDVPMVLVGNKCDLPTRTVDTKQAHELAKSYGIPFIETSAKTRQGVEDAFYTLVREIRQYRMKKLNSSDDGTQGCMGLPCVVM
Chain of HRAS wild-type protein (P01112 whole entry): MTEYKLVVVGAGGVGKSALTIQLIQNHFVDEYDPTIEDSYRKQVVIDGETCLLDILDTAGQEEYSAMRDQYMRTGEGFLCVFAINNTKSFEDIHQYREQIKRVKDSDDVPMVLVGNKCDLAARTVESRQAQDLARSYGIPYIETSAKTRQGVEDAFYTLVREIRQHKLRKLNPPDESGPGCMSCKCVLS

A word on the pKd: it is the Kd on a negative log10 scale, so that one unit is a factor of ten. Low readings indicate a large Kd, high ones a small Kd. Usually pIC50 stands for −log10 of the IC50, conventionally taken in molar units. Regarding `CCO[C@@H]1C[C@H]2C(=O)NC3(CCC3)C(=O)N(C)[C@@H](C3CCCC3)C(=O)N(C)[C@H](C(=O)N(C)C)CC(=O)N(C)[C@@H](CC3CC3)C(=O)N[C@@H]([C@@H](C)CC)C(=O)N(C)CC(=O)N(C)[C@H]3C/C=C\CCN(C3=O)[C@@H](Cc3ccc(C(F)(F)F)cc3)C(=O)N(C)CC(=O)N[C@@H](CCc3ccc(Cl)c(Cl)c3)C(=O)N2C1` [PP1253], at HRAS wild-type protein (setting [4]), the “HRAS /KRAS” value was “A (a compound having 10 or more and less than 20 is denoted as A)”. For the same molecule, in assay [1] (setting [5]), the “NRAS /KRAS” value was “A (a compound having 10 or more and less than 20 is denoted as A)”. The pKd in assay [2] (setting [6]) is 9.70. Also, the pIC50 in assay [3] (setting [7]) is 7.65.

As for `CCC(CC)[C@H]1C(=O)N(C)[C@H](C(=O)N(C)C)CC(=O)N(C)[C@@H](COC)C(=O)N[C@@H]([C@@H](C)CC)C(=O)N(C)CC(=O)N(C)[C@H]2C/C=C\CCN(C2=O)[C@@H](CC2CCCCC2)C(=O)N(C)CC(=O)N[C@@H](CCc2ccc(C(F)(F)F)c(OC)c2)C(=O)N2C[C@@H](C)C[C@H]2C(=O)NC2(CC(C)(C)C2)C(=O)N1C` [PP2466], the “HRAS /KRAS” value on HRAS wild-type protein (setting [8]) was “A (a compound having 10 or more and less than 20 is denoted as A)”. Besides, in assay [1] (setting [9]), the “NRAS /KRAS” value is “A (a compound having 10 or more and less than 20 is denoted as A)”. Also, in assay [2] (1:1 binding model), the pKd is 8.41. Moreover, the pIC50 in assay [3] (NCI-H441 cells, 4 days) is 6.77.

For the molecule `CCO[C@@H]1C[C@H]2C(=O)NC3(CCCC3)C(=O)N(C)[C@@H](C3CCCC3)C(=O)N(C)[C@H](C(=O)N3CCOCC3)CC(=O)N(C)[C@@H](CC)C(=O)N[C@@H]([C@@H](C)CC)C(=O)N(C)CC(=O)N(C)[C@H]3C[C@@H](C)[C@@H](C)CN(C3=O)[C@@H](Cc3ccc(C(F)(F)F)cc3)C(=O)N(C)CC(=O)N[C@@H](CCc3ccc(C(F)(F)F)c(Cl)c3)C(=O)N2C1` [PP1359], the “HRAS /KRAS” value at HRAS wild-type protein (setting [4]) is “B (a compound having 3 or more and less than 10 is denoted as B)”. Besides, the “NRAS /KRAS” value in assay [1] (setting [5]) was “A (a compound having 10 or more and less than 20 is denoted as A)”. Further, the pKd in assay [2] (setting [6]) was 10.17. Further, in assay [3] (setting [7]), the pIC50 is 8.49.

Turning to `CCC(CC)[C@H]1C(=O)N(C)[C@H](C(=O)N(C)C)CC(=O)N(C)[C@@H](COC)C(=O)N[C@@H]([C@@H](C)CC)C(=O)N2CCC[C@H]2C(=O)N(C)[C@H]2C/C=C\CCN(C2=O)[C@@H](Cc2ccc(C(F)F)cc2)C(=O)N(C)CC(=O)N[C@@H](CCc2ccc(Cl)c(Cl)c2)C(=O)N2C[C@H](OC3CCCC3)C[C@H]2C(=O)NC2(CC(C)(C)C2)C(=O)N1C` [PP2652], at HRAS wild-type protein (setting [8]), the “HRAS /KRAS” value was “A (a compound having 10 or more and less than 20 is denoted as A)”. Besides, the “NRAS /KRAS” value in assay [1] (setting [9]) is recorded as “AA (a compound having 20 or more is denoted as AA)”. Also, in assay [2] (1:1 binding model), the pKd was 8.82. Further, the pIC50 in assay [3] (NCI-H441 cells, 4 days) is 7.08.

Consider `CCO[C@@H]1C[C@H]2C(=O)NC3(CCC3)C(=O)N(C)[C@@H](C3CCCC3)C(=O)N(C)[C@H](C(=O)N3CCOCC3)CC(=O)N(C)[C@@H](Cc3ccc(Cl)c(Cl)c3)C(=O)N[C@@H]([C@@H](C)CC)C(=O)N(C)CC(=O)N(C)[C@H]3CCCCCN(C3=O)[C@@H](Cc3ccc(F)cc3)C(=O)N(C)CC(=O)N[C@@H](CCc3cc(F)c(C(F)(F)F)c(F)c3)C(=O)N2C1` [PP1188], for which, at HRAS wild-type protein (setting [4]), the “HRAS /KRAS” value is “B (a compound having 3 or more and less than 10 is denoted as B)”. Further, in assay [1] (setting [5]), the “NRAS /KRAS” value is “B (a compound having 3 or more and less than 10 is denoted as B)”. This molecule had a pKd in assay [2] (setting [6]) of 9.37. Further, the pIC50 in assay [3] (setting [7]) is 7.47.

In the case of `CCCC[C@H]1C(=O)N[C@@H]([C@@H](C)CC)C(=O)N(C)CC(=O)N(C)[C@H]2C/C=C\CCN(C2=O)[C@@H](Cc2ccc(C)cc2)C(=O)N(C)CC(=O)N[C@@H](CCc2ccc(C(F)(F)F)c(OC)c2)C(=O)N2C[C@H](OCC)C[C@H]2C(=O)OC2(CCC2)C(=O)N(C)[C@@H](C2CCCC2)C(=O)N(C)[C@H](C(=O)N(C)C)CC(=O)N1C` [PP3385], the “HRAS /KRAS” value at HRAS wild-type protein (setting [8]) is “B (a compound having 3 or more and less than 10 is denoted as B)”. In addition, the “NRAS /KRAS” value in assay [1] (setting [9]) is “A (a compound having 10 or more and less than 20 is denoted as A)”. This molecule also had a pKd in assay [2] (Single Cycle Kinetics) of 9.66. Besides, in assay [3] (NCI-H441 cells, 4 days), the negative logarithm of the IC50 (pIC50) is 8.09.

For the molecule `CCO[C@@H]1C[C@H]2C(=O)NC3(CC(C)(C)C3)C(=O)N(C)[C@@H](C3CCCC3)C(=O)N(C)[C@H](C(=O)N(C)CC)CC(=O)N(C)[C@@H]([C@H](C)OC)C(=O)N[C@@H]([C@@H](C)CC)C(=O)N(C)CC(=O)N(C)[C@H]3C/C=C\CCN(C3=O)[C@@H](Cc3ccc(C(F)(F)F)cc3)C(=O)N(C)CC(=O)N[C@@H](CCc3cc(F)c(C(F)(F)F)c(F)c3)C(=O)N2C1` [PP3217], the “HRAS /KRAS” value at HRAS wild-type protein (setting [8]) was “B (a compound having 3 or more and less than 10 is denoted as B)”. In addition, the “NRAS /KRAS” value in assay [1] (setting [9]) is “A (a compound having 10 or more and less than 20 is denoted as A)”. Further, the pKd in assay [2] (Single Cycle Kinetics) is 9.74. Also, the pIC50 in assay [3] (NCI-H441 cells, 4 days) is 8.00.

For `CCOC[C@H]1C(=O)N[C@@H]([C@@H](C)CC)C(=O)N(C)CC(=O)N(C)[C@H]2C/C=C\CCN(C2=O)[C@@H](Cc2ccc(C)cc2)C(=O)N(C)CC(=O)N[C@@H](CCc2cc(F)c(C(F)(F)F)c(F)c2)C(=O)N2C[C@H](OCC)C[C@H]2C(=O)NC2(CC(C)(C)C2)C(=O)N(C)[C@@H](C2CCCC2)C(=O)N(C)[C@H](C(=O)N(C)CC)CC(=O)N1C` [PP2404], the “HRAS /KRAS” value at HRAS wild-type protein (setting [8]) was “A (a compound having 10 or more and less than 20 is denoted as A)”. The “NRAS /KRAS” value in assay [1] (setting [9]) is “A (a compound having 10 or more and less than 20 is denoted as A)”. This molecule also showed a pKd in assay [2] (1:1 binding model) of 10.05. For the same molecule, in assay [3] (NCI-H441 cells, 4 days), the pIC50 is 8.39.

Regarding `C#CC[C@H]1C(=O)N[C@@H]([C@@H](C)CC)C(=O)N(C)CC(=O)N(C)[C@H]2C/C=C\CCN(C2=O)[C@@H](Cc2ccc(C)cc2)C(=O)N(C)CC(=O)N[C@@H](CCc2ccc(C(F)(F)F)c(OC)c2)C(=O)N2C[C@H](OCC)C[C@H]2C(=O)OC2(CCC2)C(=O)N(C)[C@@H](C2CCCC2)C(=O)N(C)[C@H](C(=O)N(C)C)CC(=O)N1C` [PP3391], on HRAS wild-type protein (setting [8]), the “HRAS /KRAS” value was “B (a compound having 3 or more and less than 10 is denoted as B)”. The “NRAS /KRAS” value in assay [1] (setting [9]) was “B (a compound having 3 or more and less than 10 is denoted as B)”. This molecule gave a pKd in assay [2] (Single Cycle Kinetics) of 9.34. In assay [3] (NCI-H441 cells, 4 days), the pIC50 is 8.01.

Turning to `CCC[C@H]1C(=O)N[C@@H]([C@@H](C)CC)C(=O)N2CCC[C@H]2C(=O)N(C)[C@H]2C/C=C\CCN(C2=O)[C@@H](CC2CCCCC2)C(=O)N(C)CC(=O)N[C@@H](CCc2ccc(C(F)(F)F)c(OC)c2)C(=O)N2C[C@@H](C)C[C@H]2C(=O)N(C)C2(CCC2)C(=O)N(C)[C@@H](C2CCCC2)C(=O)N(C)[C@H](C(=O)N(C)C)CC(=O)N1C` [PP2374], the “HRAS /KRAS” value at HRAS wild-type protein (setting [8]) is “A (a compound having 10 or more and less than 20 is denoted as A)”. In assay [1] (setting [9]), the “NRAS /KRAS” value was “A (a compound having 10 or more and less than 20 is denoted as A)”. Also, in assay [2] (1:1 binding model), the pKd was 9.07. Also, the pIC50 in assay [3] (NCI-H441 cells, 4 days) is 7.17.

For the molecule `C#CC[C@H]1C(=O)N[C@@H]([C@@H](C)CC)C(=O)N(C)CC(=O)N(C)[C@H]2C/C=C\CCN(C2=O)[C@@H](Cc2ccc(C(F)(F)F)cc2)C(=O)N(C)CC(=O)N[C@@H](CCc2ccc(C(F)(F)F)c(OC)c2)C(=O)N2C[C@H](OCC)C[C@H]2C(=O)N(C)C2(CCC2)C(=O)N(C)[C@@H](C2CCCC2)C(=O)N(C)[C@H](C(=O)N(C)C)CC(=O)N1C` [PP3230], the “HRAS /KRAS” value at HRAS wild-type protein (setting [8]) was “A (a compound having 10 or more and less than 20 is denoted as A)”. The “NRAS /KRAS” value in assay [1] (setting [9]) was “A (a compound having 10 or more and less than 20 is denoted as A)”. In assay [2] (Single Cycle Kinetics), the negative logarithm of the Kd (pKd) is 10.52. Also, the pIC50 in assay [3] (NCI-H441 cells, 4 days) is 8.59.

For the origin of these results see patent publication EP4603105A1, “PHARMACEUTICAL COMPOSITION CONTAINING CYCLIC COMPOUND HAVING SELECTIVE KRAS INHIBITORY EFFECT AGAINST HRAS AND NRAS” (CHUGAI SEIYAKU KABUSHIKI KAISHA, priority 2022, dated 2024).
